Assay results reported in patent US10537127B2, “Organic compounds” (GIVAUDAN SA, priority 2013, dated 2020).

Assay: Beef bouillon taste evaluation by a panel of experienced tasters
Conditions: 40 ppb dosed to beef bouillon made from bouillon cubes; versus reference bouillon
Protocol: A beef bouillon was prepared using bouillon cubes obtained from a local supermarket.

With `O=C(O)CCCCCCCC(=O)NC(Cc1c[nH]c2ccccc12)C(=O)O` (stereo not drawn) [Example 1, 9-((1-Carboxy-2-(1H-indol-3-yl)ethyl)amino)-9-oxononanoic acid] the “taste of the bouillon compared with the reference (panel agreement)” value was “more umami, more salty and more full than the reference”.

In the case of `O=C(O)CCCCCCCC(=O)N1CCCC1C(=O)O` (stereo not drawn) [Example 2, 1-(8-Carboxyoctanoyl)pyrrolidine-2-carboxylic acid], the “taste of the bouillon compared with the reference (panel agreement)” value is reported as “more salt impact, and more umami taste than the reference”.

For `O=C(O)CCCCCCCC(=O)NCCCC(=O)O` [Example 3, 9-((3-Carboxypropyl)amino)-9-oxononanoic acid], the “taste of the bouillon compared with the reference (panel agreement)” value was “more salty and had more “bite” than the reference”.
